Source: US20240252527A9, “NUCLEOSIDE DRUGS FOR THE TREATMENT OR PREVENTION OF CORONAVIRUS INFECTION AND THEIR USES” (Miracure Biotechnology Limited, priority 2022, published 2024)
Like-named read-outs stand apart in the source and are kept apart here.

What was measured:
229E = 229E MRC5 CPE assay (cytopathic experiment); assay type: cell-based, coronavirus 229E (HCoV-229E)
OC43 = OC43 Huh7 CPE assay (cytopathic experiment); assay type: cell-based, coronavirus OC43 (HCoV-OC43); conditions: for EC50: read-out: OC43 Huh7 CPE assay (μM) EC50; for EC90: read-out: OC43 Huh7 CPE assay (μM) EC90
Outline: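 Cells seeded overnight, then two-fold diluted compound added with virus; viability read by CellTiter-Glo after 3 days (229E, MRC5 cells) or 7 days (OC43, Huh7 cells). EC50/EC90 from % inhibition of virus-induced CPE; CC50 from parallel uninfected cytotoxicity runs, by nonlinear fitting.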

[1] = Human coronavirus 229E, MRC5, 72 h, read-out: 229E MRC5 CPE assay (μM) EC50
[2] = Human coronavirus 229E, MRC5, 72 h, read-out: 229E MRC5 CPE assay (μM) EC90
[3] = Betacoronavirus 1, OC43, Huh-7, 168 h
[4] = Human coronavirus 229E, MRC5, 72 h; read-out: 229E MRC5 CPE assay (μM) EC50
[5] = Human coronavirus 229E, MRC5, 72 h; read-out: 229E MRC5 CPE assay (μM) EC90
[6] = Betacoronavirus 1, Huh-7, 168 h, Huh7 cells, OC43 virus, 7 days, Cell Titer Glo

Structure (SMILES) | EC50 (229E; [1]) | EC90 (229E; [2]) | EC50 (OC43; [3]) | EC90 (OC43; [3]) | EC50 (229E; [4]) | EC90 (229E; [5]) | EC50 (OC43; [6]) | EC90 (OC43; [6])
[2H]c1cc([C@]2(C#N)O[C@@H]3CO[P@@](=O)(OCOC(=O)C(CCC)CCC)O[C@H]3[C@H]2O)n2ncnc(N)c12 [Compound 211] | < 0.1 µM | < 0.1 µM | 0.1 to 0.5 µM | > 0.5 µM | – | – | – | –
[2H]c1cc([C@]2(C#N)O[C@H](COP(=O)(OCOC(=O)C(CCC)CCC)OCOC(=O)C(CCC)CCC)[C@@H](O)[C@H]2O)n2ncnc(N)c12 [Compound 212] | 0.1 to 0.5 µM | > 0.5 µM | 0.1 to 0.5 µM | > 0.5 µM | – | – | – | –
CC(C)(C)C(=O)OCO[P@@](=O)(OC[C@H]1O[C@@](C#N)(c2ccc3c(N)ncnn23)[C@H](O)[C@@H]1O)Oc1ccccc1 [Compound 214] | – | – | > 0.5 µM | > 0.5 µM | > 0.5 µM | > 0.5 µM | – | –
CC(C)(C)C(=O)OCO[P@](=O)(OC[C@H]1O[C@@](C#N)(c2ccc3c(N)ncnn23)[C@H](O)[C@@H]1O)Oc1ccccc1 [Compound 215] | – | – | > 0.5 µM | > 0.5 µM | > 0.5 µM | > 0.5 µM | – | –
CC(C)(C)C(=O)OCO[P@@](=O)(OC[C@H]1O[C@@](C#N)(c2ccc3c(N)ncnn23)[C@H](O)[C@@H]1O)Oc1cccc2ccccc12 [Compound 216] | – | – | > 0.5 µM | > 0.5 µM | > 0.5 µM | > 0.5 µM | – | –
CC(C)(C)C(=O)OCO[P@](=O)(OC[C@H]1O[C@@](C#N)(c2ccc3c(N)ncnn23)[C@H](O)[C@@H]1O)Oc1cccc2ccccc12 [Compound 217] | – | – | > 0.5 µM | > 0.5 µM | > 0.5 µM | > 0.5 µM | – | –
CCC(CC)COC(=O)[C@H](C)N[P@@](=O)(OC[C@H]1O[C@@](C#N)(c2ccc3c(N)ncnn23)[C@H](O)[C@@H]1O)Oc1ccc(C[C@H](NC(=O)OCc2ccccc2)C(=O)OC2CCCC2)cc1 [Compound 218] | – | – | – | – | > 0.5 µM | > 0.5 µM | > 0.5 µM | > 0.5 µM
CCC(CC)COC(=O)[C@H](C)N[P@](=O)(OC[C@H]1O[C@@](C#N)(c2ccc3c(N)ncnn23)[C@H](O)[C@@H]1O)Oc1ccc(C[C@H](NC(=O)OCc2ccccc2)C(=O)OC2CCCC2)cc1 [Compound 219] | – | – | – | – | > 0.5 µM | > 0.5 µM | > 0.5 µM | > 0.5 µM
N#C[C@@]1(c2ccc3c(N)ncnn23)O[C@@H]2CO[P@@](=O)(Oc3ccccc3)O[C@H]2[C@H]1O [Compound 220] | – | – | > 0.5 µM | > 0.5 µM | > 0.5 µM | > 0.5 µM | – | –
N#C[C@@]1(c2ccc3c(N)ncnn23)O[C@@H]2CO[P@](=O)(Oc3ccccc3)O[C@H]2[C@H]1O [Compound 221] | – | – | > 0.5 µM | > 0.5 µM | > 0.5 µM | > 0.5 µM | – | –
CCCC(CCC)C(=O)OCO[P@@](=O)(OC[C@H]1O[C@@](C#N)(c2ccc3c(N)ncnn23)[C@H](O)[C@@H]1O)Oc1ccccc1 [Compound 222] | – | – | > 0.5 µM | > 0.5 µM | 0.1 to 0.5 µM | > 0.5 µM | – | –
CCCC(CCC)C(=O)OCO[P@](=O)(OC[C@H]1O[C@@](C#N)(c2ccc3c(N)ncnn23)[C@H](O)[C@@H]1O)Oc1ccccc1 [Compound 223] | – | – | > 0.5 µM | > 0.5 µM | 0.1 to 0.5 µM | > 0.5 µM | – | –
CCCC(CCC)C(=O)OCO[P@@](=O)(OC[C@H]1O[C@@](C#N)(c2ccc3c(N)ncnn23)[C@H](O)[C@@H]1O)Oc1cccc2ccccc12 [Compound 224] | – | – | > 0.5 µM | > 0.5 µM | > 0.5 µM | > 0.5 µM | – | –
CCCC(CCC)C(=O)OCO[P@](=O)(OC[C@H]1O[C@@](C#N)(c2ccc3c(N)ncnn23)[C@H](O)[C@@H]1O)Oc1cccc2ccccc12 [Compound 225] | – | – | > 0.5 µM | > 0.5 µM | > 0.5 µM | > 0.5 µM | – | –
CCCC(CCC)C(=O)OCO[P@](=O)(OC[C@H]1O[C@@](C#N)(c2ccc3c(N)ncnn23)[C@H](O)[C@@H]1O)Oc1ccc(C[C@H](NC(=O)OCc2ccccc2)C(=O)OC2CCCC2)cc1 [Compound 226] | – | – | > 0.5 µM | > 0.5 µM | > 0.5 µM | > 0.5 µM | – | –
CCCC(CCC)C(=O)OCO[P@@](=O)(OC[C@H]1O[C@@](C#N)(c2ccc3c(N)ncnn23)[C@H](O)[C@@H]1O)Oc1ccc(C[C@H](NC(=O)OCc2ccccc2)C(=O)OC2CCCC2)cc1 [Compound 227] | – | – | > 0.5 µM | > 0.5 µM | > 0.5 µM | > 0.5 µM | – | –
N#C[C@@]1(c2ccc3c(N)ncnn23)O[C@@H]2CO[P@](=O)(OCOC(=O)Oc3ccccc3)O[C@H]2[C@H]1O [Compound 228] | > 0.5 µM | > 0.5 µM | > 0.5 µM | > 0.5 µM | – | – | – | –
N#C[C@@]1(c2ccc3c(N)ncnn23)O[C@@H]2CO[P@@](=O)(OCOC(=O)Oc3ccccc3)O[C@H]2[C@H]1O [Compound 229] | > 0.5 µM | > 0.5 µM | > 0.5 µM | > 0.5 µM | – | – | – | –
CCO[P@@]1(=O)OC[C@H]2O[C@@](C#N)(c3ccc4c(N)ncnn34)[C@H](O)[C@@H]2O1 [Compound 230] | – | – | – | – | > 0.5 µM | > 0.5 µM | > 0.5 µM | > 0.5 µM
CCO[P@]1(=O)OC[C@H]2O[C@@](C#N)(c3ccc4c(N)ncnn34)[C@H](O)[C@@H]2O1 [Compound 231] | – | – | – | – | > 0.5 µM | > 0.5 µM | > 0.5 µM | > 0.5 µM
[2H]c1cc([C@]2(C#N)O[C@@H]3CO[P@](=O)(OCC)O[C@H]3[C@H]2O)n2ncnc(N)c12 [Compound 232] | – | – | – | – | > 0.5 µM | > 0.5 µM | > 0.5 µM | > 0.5 µM
[2H]c1cc([C@]2(C#N)O[C@@H]3CO[P@@](=O)(OCC)O[C@H]3[C@H]2O)n2ncnc(N)c12 [Compound 233] | – | – | – | – | > 0.5 µM | > 0.5 µM | > 0.5 µM | > 0.5 µM
CC(C)(C)C(=O)SCCO[P@@]1(=O)OC[C@H]2O[C@@](C#N)(c3ccc4c(N)ncnn34)[C@H](O)[C@@H]2O1 [Compound 236] | < 0.1 µM | < 0.1 µM | < 0.1 µM | < 0.1 µM | – | – | – | –
[2H]c1cc([C@]2(C#N)O[C@@H]3CO[P@](=O)(OCCSC(=O)C(C)(C)C)O[C@H]3[C@H]2O)n2ncnc(N)c12 [Compound 238] | < 0.1 µM | < 0.1 µM | < 0.1 µM | < 0.1 µM | – | – | – | –
[2H]c1cc([C@]2(C#N)O[C@@H]3CO[P@@](=O)(OCCSC(=O)C(C)(C)C)O[C@H]3[C@H]2O)n2ncnc(N)c12 [Compound 239] | < 0.1 µM | < 0.1 µM | < 0.1 µM | 0.1 to 0.5 µM | – | – | – | –
N#C[C@@]1(c2ccc3c(N)ncnn23)O[C@@H]2COP(=O)(O)O[C@H]2[C@H]1OC(=O)CCCc1ccccc1 [Compound 260] | 0.1 to 0.5 µM | 0.1 to 0.5 µM | > 0.5 µM | > 0.5 µM | – | – | – | –
N#C[C@@]1(c2ccc3c(N)ncnn23)O[C@@H]2CO[P@](=O)(OCOC(=O)C3CCCC3)O[C@H]2[C@H]1O [Compound 261] | 0.1 to 0.5 µM | > 0.5 µM | > 0.5 µM | > 0.5 µM | – | – | – | –
N#C[C@@]1(c2ccc3c(N)ncnn23)O[C@@H]2CO[P@@](=O)(OCOC(=O)C3CCCC3)O[C@H]2[C@H]1O [Compound 262] | 0.1 to 0.5 µM | > 0.5 µM | > 0.5 µM | > 0.5 µM | – | – | – | –
N#C[C@@]1(c2ccc3c(N)ncnn23)O[C@@H]2CO[P@](=O)(OCOC(=O)CCCc3ccccc3)O[C@H]2[C@H]1O [Compound 263] | < 0.1 µM | < 0.1 µM | 0.1 to 0.5 µM | > 0.5 µM | – | – | – | –
